According to ChEMBL document CHEMBL1157539, “Thousands of chemical starting points for antimalarial lead identification” (Nature, 2010):

Test system: Plasmodium falciparum
Test: GSK_TCMDC: Inhibition of Plasmodium falciparum 3D7 in whole erythrocytes, using parasite LDH activity as an index of growth.
Format: functional, organism-based
Conditions: Plasmodium falciparum, 3D7

Structure (SMILES) | XC50
CO/C(=C\C=C/c1cc2cc(Cl)c(Cl)cc2[nH]1)C(=O)NC1CC(C)(C)N(C)C(C)(C)C1 | 833 nM
CS(=O)(=O)NCCCNCc1cccc(-c2cccc(-c3nc4cc(F)ccc4[nH]3)c2)c1 | 938 nM
COc1ccc2nccc([C@@H](O)CN3CCC(NC(=O)/C=C/c4cc(F)cc(Br)c4)CC3)c2c1 | 172 nM
COc1ccc(-c2nnc(Sc3ccc(C#N)c([N+](=O)[O-])c3)n2CCC(C)C)cc1 | 1110 nM
CCCN(CCC)CCOC(=O)C(OCC)(c1ccccc1)c1ccccc1 | 871 nM
COc1ccc2nccc([C@@H](O)CN3CCC(NC(=O)c4ccc(Cl)c(Cl)c4)CC3)c2c1 | 614 nM
CN(C)c1ccc(OCCCCCCOc2ccccc2)cc1 | 496 nM
CN1CCC(Oc2cc(NC(=O)Nc3ccc(-c4ccncc4)c(C(F)(F)F)c3)ccc2Cl)CC1 | 780 nM
Cc1cccc2nc(-c3cccc(-c4ccc(NC(=O)c5ccoc5)cc4)c3)[nH]c12 | 703 nM
CN1CCN(S(=O)(=O)c2ccc3nccc(Nc4ccc(Oc5ccccc5)cc4)c3c2)CC1 | 818 nM
COc1cc(C2C(Oc3ccccc3)C(=O)N2Cc2ccc(F)cc2)cc(OC)c1OC (stereo not given) | 956 nM
Cc1nc(O)c2c(ccc3ccc(CNc4ccc(C(=O)N[C@@H](CCC(=O)O)C(=O)O)c(F)c4)cc32)n1 | 402 nM
CSc1ccc(CN2CCC(NC(=O)c3ccc(-c4cccc(C(F)(F)F)c4)s3)CC2)cc1 | 1220 nM
COc1ccc(-c2cccc(NC(=O)c3ccc(C#N)cc3)c2)cc1CNC(C)C | 808 nM
CCOc1cc(C)ccc1N1CCN(CCN2CCC(NC(=O)c3ccc(-c4ccc(C#N)cc4)cc3)CC2)CC1 | 1430 nM
CCOc1ccc2nc(NC(=O)c3csnn3)sc2c1 | 476 nM
C=C[C@H]1CN2CC[C@H]1C[C@H]2[C@H](OS(=O)(=O)O)c1ccnc2ccccc12 | 624 nM
CC(NC(C)(C)C)C(O)c1ccc(Cl)c(C(F)(F)F)c1 (stereo not given) | 742 nM
COc1ccc2nc(-c3cccc(C)n3)nc(Nc3ccncc3)c2c1 | 669 nM
COc1ccc(C2CCN(CCCCNC(=O)c3ccc(NC(=O)c4ccc(Cl)cc4)cc3)CC2)c(OC)c1 | 570 nM

Structure (SMILES) | XC50
O=C(C=Cc1cccs1)N(CCCn1ccnc1)c1nc2ccc(F)cc2s1 | 1600 nM
Cc1cc(N2CCCC2)nc(Nc2ccc(NC(=O)Cc3ccccc3)cc2)n1 | 606 nM
COc1cc(OC)cc(C(=O)Nc2nc(-c3ccccn3)cs2)c1 | 561 nM
N#Cc1ccc(-c2ccc(C(=O)Nc3ccc4c(c3)CCN(C3CCC3)CC4)nc2)cc1 | 696 nM
N#Cc1cccc(C(=O)Nc2cccc(-c3ccc(CN4CCC(O)CC4)cc3)c2)c1 | 1300 nM
CCCCCOc1ccc(N2C(N)=NC(N)=NC2(C)C)cc1 | 205 nM
O=C(Nc1cccc(CN2CCCN(Cc3ccsc3)CC2)c1)c1ccc(Cl)c(Cl)c1 | 885 nM
CC(C)c1sc(N2CCN(C)CC2)nc1C(=O)NCCc1ccc(Cl)c(Cl)c1 | 1050 nM
Cc1cc(N[C@@H](Cc2ccccc2)C(=O)NCc2cccc(F)c2)nc(NCCCOC(C)C)n1 | 920 nM
O=C(NCc1ccc(S(=O)(=O)N2CCC(CN3CCC(c4c[nH]c5ccccc45)CC3)CC2)s1)c1ccccc1 | 843 nM
Cc1cc2c(NC(=O)NC3CCN(CCc4cccc(Cl)c4)CC3)cccc2cn1 | 370 nM
COCCNCc1cccc(-c2ccc3nccc(Nc4cc(O)ccc4C)c3c2)c1 | 749 nM
CC(=O)c1ccc(-c2ccccc2)s1 | 1080 nM
COC(=O)c1cc(C(=O)CN(Cc2ccccc2)C(C)C)ccc1O | 183 nM
CC(C)NC(=O)c1cccc(-c2cccc(OCCN3CCSCC3c3ccccc3)c2)c1 (stereo not given) | 1010 nM
Cn1cnc2c(SCc3ccccc3OCc3ccccc3)ncnc21 | 922 nM
Cc1cccc2nc(-c3cccc(-c4ccc(NC(=O)c5cccnc5)cc4)c3)[nH]c12 | 594 nM
CCOc1ccc2c(=NN=Cc3cc(OC)c(OC)c(OC)c3)cc(C)[nH]c2c1 | 613 nM
O=C(CCc1c[nH]cn1)Nc1cccc(-c2ccc(-c3nc4ccccc4[nH]3)cc2)c1 | 651 nM
O=C(Nc1ccc(F)cc1)NC1CCN(c2ccnc3cc(Cl)ccc23)C1 (stereo not given) | 218 nM
